Assays:
Ehrlich = test: (§1) Evaluated for the inhibition of cell-free gelation in Ehrlich Ascites tumor extracts; assay type: functional; conditions: Mus musculus, read-out: ID50 (the source's name)
Mus musculus = species on record: Mus musculus; test: as §1; assay type: functional

SMILES | IC50 (Ehrlich) [µM] | ID50 (Mus musculus) [µM]
CC(=O)OC1/C=C\C(C)(O)C(=O)C(C)C/C=C/C2C(O)C(CI)=C(C)C3C(Cc4ccccc4)NC(=O)C123 (configuration not stated) | 0.6 | –
CC(=O)OC1/C=C\C(C)(O)C(=O)C(C)C/C=C/C2C(O)C(CC#N)=C(C)C3C(Cc4ccccc4)NC(=O)C123 (configuration not stated) | – | 7.7
CC(=O)OC1/C=C\C(C)(O)C(=O)C(C)C/C=C/C2C(O)C(CBr)=C(C)C3C(Cc4ccccc4)NC(=O)C123 (configuration not stated) | 0.74 | –
C=C1C(C)C2C(Cc3ccccc3)NC(=O)C23C(OC(C)=O)/C=C\C(C)(O)C(=O)C(C)C/C=C/C3C1O (configuration not stated) | 0.21 | –
CC(=O)OC1/C=C\C(C)(O)C(=O)C(C)C/C=C/C2C(O)C(C)=C(C)C3C(Cc4ccccc4)NC(=O)C123 (configuration not stated) | 0.35 | –
CC(=O)OC1/C=C\C(C)(O)C(=O)C(C)C/C=C/C2C(O)C(Br)(CBr)C(C)C3C(Cc4ccccc4)NC(=O)C123 (configuration not stated) | – | 4.5
CC(=O)OC1/C=C\C(C)(O)C(=O)C(C)C/C=C/C2C(O)C(CN=[N+]=[N-])=C(C)C3C(Cc4ccccc4)NC(=O)C123 (configuration not stated) | 0.88 | –

Source: ChEMBL document CHEMBL1122072, “Structure-activity correlations of cytochalasins. Novel halogenated and related cytochalasin C and D derivatives” (1982)
